Assay [1] deals with NRK. In words: Induction of morphological changes in rat NRK cells expressing K-ras assessed as flat morphology and cytoskeletal organization at 10 to 30 ng/mL after 1 day. The assay is classed as functional, cell-based.
Assay [2] concerns NRK. In words: Induction of morphological changes in rat NRK cells expressing K-ras assessed as flat morphology and cytoskeletal organization at 10 to 30 ng/mL after 3 days. The assay is classed as functional, cell-based.
Assay [3] relates to NRK. Description: Decrease in cellular Ras protein level in rat NRK cells expressing K-ras at 2.5 ng/mL after 1 to 3 days by immunoblotting. The assay is classed as functional, cell-based.
In assay [4] the test system is NIH3T3. Description: Growth inhibition of mouse NIH/3T3 cells expressing H-ras. The format is functional, cell-based.
Assay [5] concerns NRK. Description: Inhibition of RNA synthesis in rat NRK cells expressing K-ras assessed as [5-3H]uridine incorporation after 1 hr. The assay is classed as functional, cell-based.
For assay [6], the system named is NRK. In words: Growth inhibition of rat NRK cells expressing K-ras. The assay is classed as functional, cell-based.
For assay [7], the system named is NRK. Description: Growth inhibition of rat NRK cells. The format is cell-based.
Assay [8] has as its system NRK. Description: Inhibition of DNA synthesis in rat NRK cells expressing K-ras assessed as [methyl-3H]thymidine incorporation after 1 hr. The assay is classed as functional, cell-based.
Assay [9] deals with NRK. In words: Inhibition of protein synthesis in rat NRK cells expressing K-ras assessed as L-[4,5-3H]leucine incorporation after 1 hr. The format is functional, cell-based.
Assay [10] in a line: Growth inhibition of mouse NIH/3T3 cells. Conditions: NIH3T3. The format is cell-based.
Assay [11] concerns NIH3T3. In words: Growth inhibition of mouse NIH/3T3 cells expressing K-ras. The format is functional, cell-based.
The test system of assay [12] is NIH3T3. Description: Growth inhibition of mouse NIH/3T3 cells expressing N-ras. The assay is classed as functional, cell-based.
For assay [13], the system named is NRK. Description: Induction of morphological changes in rat NRK cells expressing K-ras-ts proto-oncogene assessed as flat morphology. The assay is classed as functional, cell-based.
The test system of assay [14] is NRK. In words: Induction of morphological changes in rat NRK cells expressing K-ras assessed as flat morphology. The format is functional, cell-based.

This passage reports Activity and IC50 results from ChEMBL document CHEMBL1158266, “Cyclopentabenzofuran lignan protein synthesis inhibitors from Aglaia odorata” (J Nat Prod, 1996).

Converted amounts (≈) assume the structure as drawn. The source made the active and inactive calls. No cut-off for these calls is given here.

Turning to `COc1ccc([C@@]23Oc4cc(OC)cc(OC)c4[C@]2(O)c2nc4n(c(=O)c2[C@H]3c2ccccc2)CCC4)cc1`, the outcome in the assay with NRK [1], with NRK [2], in the assay with NRK [3] and in the assay with NRK [9] was Active. The IC50 in the assay on NIH3T3 [4] was 7.8 ng/mL (≈ 0.0149 µM); with NRK [6], 81 ng/mL (≈ 0.154 µM); with NRK [7] it was 9.8 ng/mL (≈ 0.0187 µM); in assay [10] it was 7.6 ng/mL (≈ 0.0145 µM); with NIH3T3 [11], 8.9 ng/mL (≈ 0.017 µM); in the assay on NIH3T3 [12], 8 ng/mL (≈ 0.0153 µM). Besides, the outcome with NRK [5] and in the assay with NRK [8] was inactive.

For the molecule `CC[C@@]12C=CCN3CC[C@]4(C(=C(C(=O)OC)C1)Nc1cc5c(cc14)[C@H]1[C@@H](O5)[C@H](O)[C@]4(CC)CC(C(=O)OC)=C5Nc6c(cc(O)c(OC)c6OC)[C@@]56CCN1[C@H]46)[C@H]32`, the result in the assay on NRK [13] and with NRK [14] was Active.

Regarding `CC[C@@]12CC(C(=O)OC)=C3Nc4cc5c(cc4[C@@]34CCN(C[C@H]3O[C@H]31)[C@@H]24)[C@@H]1[C@H](O5)[C@@H](O)[C@@]2(CC)CC(C(=O)OC)=C3Nc4c(cc(O)c(OC)c4OC)[C@@]34CCN1[C@@H]24`, the outcome in the assay with NRK [13] and in the assay on NRK [14] was Active.

As to `COc1c(C=O)c(O)cc2c1C(=O)c1ccccc1C2=O`, the outcome with NRK [13] and with NRK [14] was Active.

Consider `COc1ccc([C@@]23Oc4cc(OC)cc(OC)c4[C@]2(O)C2=C(C(=O)N4CCC[C@H]4N2)[C@H]3c2ccccc2)cc1` [AGLAIASTATIN], for which the result in the assay with NRK [1], with NRK [2], in the assay with NRK [3] and in the assay with NRK [9] was Active. Moreover, the IC50 in the assay with NIH3T3 [4] is 1 ng/mL (≈ 0.0019 µM); with NRK [6] it was 2.8 ng/mL (≈ 0.00532 µM); in the assay with NRK [7] it was 2.1 ng/mL (≈ 0.00399 µM); in [10], 4.1 ng/mL (≈ 0.00779 µM); with NIH3T3 [11], 5.6 ng/mL (≈ 0.0106 µM); with NIH3T3 [12] it was 1.8 ng/mL (≈ 0.00342 µM). Moreover, the result in the assay on NRK [5] and in the assay on NRK [8] was inactive.

`COc1ccc([C@@]23Oc4cc(OC)cc(OC)c4[C@]2(O)[C@H](O)C[C@H]3c2ccccc2)cc1` [ROCAGLAOL]: the result in the assay with NRK [1], in the assay with NRK [2], with NRK [3] and in the assay with NRK [9] was Active. The IC50 was 5.3 ng/mL (≈ 0.0122 µM) with NIH3T3 [4]; 5.8 ng/mL (≈ 0.0133 µM) with NRK [6]; 10 ng/mL (≈ 0.023 µM) with NRK [7]; 2 ng/mL (≈ 0.0046 µM) in assay [10]; 7 ng/mL (≈ 0.0161 µM) with NIH3T3 [11]; 7.5 ng/mL (≈ 0.0173 µM) with NIH3T3 [12]. The outcome in the assay with NRK [5] and with NRK [8] was inactive.
